Earlier results as cited in patent US20160000731A1, “SORE-THROAT COMPOSITIONS AND RELATED METHODS” (Xlear, Inc., priority 2014, published 2016).

Assays:
Streptococcus pneumonia = details: in vitro, during its logarithmic growth phase
dental caries = details: regular consumption

For OC[C@@H](O)[C@H](O)[C@@H](O)CO [Xylitol], the “growth of Streptococcus pneumonia” value (Streptococcus pneumonia) is listed as “inhibit the growth” and the “incidence of dental caries” value (dental caries) is listed as “reduce the incidence of dental caries”.
